Source: patent publication US8338141B2, “Methionine recovery processes” (Novus International, Inc., priority 2003, dated 2012)
In brackets after ≈: the same amount, converted by molar mass. Read-outs that look alike come from different tables or passages of the source.

Experiments:
[1] = 25° C., Merck Index 12th Edition 1996; cited from earlier work
physchem = details: thermodynamic from solid
Method: (§1) The pH of the slurry was measured to be 5.54. A well-mixed sample of this slurry was drawn, and solids removed from the sample by centrifugation followed by filtration.
(§2) From a well-mixed sample of this slurry, solids were removed as before by centrifugation and filtration. […] At this point, the whole cells were separated from the methionine and fermentation solubles by centrifugation.
(§3) Methionine was added to the fermentation broth at a concentration of 56 g/L. In addition to soluble methionine, the slurry had insoluble methionine, microbial cells and components of fermentation media. 50% NaOH was added to the slurry at a concentration equal to 0.5 eq. weight of methionine. […] A sample of the slurry was removed and filtered as previously described.
(§4) Methionine was added to fermentation broth at a concentration of 77 g/L. The slurry was then heated to 70° C. without pH adjustment. This slurry was then filtered through a 0.45 micron filter in a heated filtration unit to remove the whole cells and other insoluble fermentation broth components. The filtrate was collected and analyzed for methionine.
(§5) Concentrated sulfuric acid (H2SO4, 96% w/w) was added in a concentration equal to 1 equivalent weight of methionine to the slurry, lowering the pH of the slurry to 2.49. Methionine concentration was measured from a sample after centrifugation and filtration as previously described.
(§6) H2SO4 (96% w/w) at a concentration of 1 equivalent weight of methionine was added to this slurry, decreasing the pH of the broth to 2.39.

[2] = soluble methionine concentration in the filtrate of L-methionine-supplemented fermentation broth slurry, by HPLC after centrifugation and filtration
Method: as §1, §2, §3, §4, §5, §6

[3] = for concentration of methionine remaining in the supernatant (mother liquor): buffer, 18 h
Method: To the cell free broth containing the solubilized L-methionine, sulfuric acid (96% w/w) was added and its pH lowered to […], the isoelectric point of L-methionine. […] The slurry was then stored overnight at 4° C. to allow for precipitation of the crystals. The slurry was then centrifuged to collect the methionine crystals.
At pH of 1.68, cells from the slurried fermenter broth were separated first by centrifugation followed by filtration through a 0.45 micron filter. The pH of the filtrate was then raised to 5.75, the isoelectric point of methionine by addition of 50% NaOH, resulting in formation of L-methionine crystals. The slurry was placed in a refrigerator at 4° C. for 18 hours to allow for additional crystallization of methionine. The crystals were then removed by centrifugation and filtration and further dried on a lyophilizer. The dried crystals were harvested from the lyophilizer. […] Crystals were collected by centrifugation at 4° C. by using a pre-chilled centrifuge.
For optimal recovery of methionine, solids from the acidified slurry above were removed by centrifugation and filtration and the pH of the recovered filtrate was raised to 5.6 using NaOH. […] This solution was placed again in the refrigerator at 4° C. for 18 hours to allow for formation of additional methionine crystals. Crystals formed after 18 hours at 4° C. were filtered and dried in a lyophilizer.

solubility (physchem; 22 °C, pH 5.54, plasma or biological fluid)	solubility (physchem; pH 2.39, plasma or biological fluid)	solubility (physchem; pH 2.49, plasma or biological fluid)	solubility (physchem; pH 8.92, plasma or biological fluid)	solubility (physchem; pH 9.36, plasma or biological fluid)	solubility of methionine in fermentation broth ([2]; 22° C., no pH adjustment)	solubility of methionine in the solution versus pH 9.36 ([2]; NaOH 2 equivalent weight, pH 10.22)	solubility of L-methionine versus lower NaOH levels ([2]; NaOH 2.5 equivalent weight, pH 12.53)	concentration of methionine in the filtrate ([2]; slurry with 56 g/L methionine, NaOH 1 eq weight, pH 9.38)	additional methionine solubilized ([2]; slurry with 56 g/L methionine, NaOH 1.5, 2 and 2.5 eq wt, pH 9.82, 10.47 and 12.23)	concentration of methionine in the filtrate ([2]; slurry with 77 g/L methionine, heated to 70° C., no pH adjustment, 0.45 micron filter)	concentration of methionine remaining in the supernatant (mother liquor) ([3]; pH 5.6)	concentration of methionine remaining in the supernatant (mother liquor) ([3]; pH 5.75)	concentration of methionine remaining in the supernatant ([3]; pH 5.95)	SMILES	water solubility [1]
														CSCCC(N)C(=O)O (racemic) [DL-methionine]	33.81 mg/mL (≈ 227 mM)
38 mg/mL (≈ 255 mM)	55 mg/mL (≈ 369 mM)	75 mg/mL (≈ 503 mM)	58 mg/mL (≈ 389 mM)	78 mg/mL (≈ 523 mM)	38 mg/mL	unchanged	did not further increase	56000 µg/mL	No additional methionine was solubilized	74600 µg/mL	39500 µg/mL	47200 µg/mL	33000 µg/mL	CSCC[C@H](N)C(=O)O [L-methionine]	
